Measurements: ChEMBL document CHEMBL3774316, “Design, synthesis and anti-HIV-1 evaluation of hydrazide-based peptidomimetics as selective gelatinase inhibitors” (Bioorg Med Chem, 2016)

Key:
[1] = Therapeutic index, ratio of CC50 for human C8166 cells to EC50 for HIV1 3B infected in human C8166 cells; assay type: cell-based; settings: read-out: Ratio CC50/EC50
[2] = test system: Human immunodeficiency virus 1; test: Antiviral activity against HIV1 3B infected in human C8166 cells assessed as cytopathic effect by counting the number of syncytia by microscopy; assay type: functional, organism-based; settings: Human immunodeficiency virus 1, 3B
[3] = molecular target: 72 kDa type IV collagenase (Homo sapiens, UniProt P08253); test: Inhibition of gelatinase A (unknown origin) after 30 mins using succinylated gelatin as substrate
72 kDa type IV collagenase, sequence (P08253 whole entry): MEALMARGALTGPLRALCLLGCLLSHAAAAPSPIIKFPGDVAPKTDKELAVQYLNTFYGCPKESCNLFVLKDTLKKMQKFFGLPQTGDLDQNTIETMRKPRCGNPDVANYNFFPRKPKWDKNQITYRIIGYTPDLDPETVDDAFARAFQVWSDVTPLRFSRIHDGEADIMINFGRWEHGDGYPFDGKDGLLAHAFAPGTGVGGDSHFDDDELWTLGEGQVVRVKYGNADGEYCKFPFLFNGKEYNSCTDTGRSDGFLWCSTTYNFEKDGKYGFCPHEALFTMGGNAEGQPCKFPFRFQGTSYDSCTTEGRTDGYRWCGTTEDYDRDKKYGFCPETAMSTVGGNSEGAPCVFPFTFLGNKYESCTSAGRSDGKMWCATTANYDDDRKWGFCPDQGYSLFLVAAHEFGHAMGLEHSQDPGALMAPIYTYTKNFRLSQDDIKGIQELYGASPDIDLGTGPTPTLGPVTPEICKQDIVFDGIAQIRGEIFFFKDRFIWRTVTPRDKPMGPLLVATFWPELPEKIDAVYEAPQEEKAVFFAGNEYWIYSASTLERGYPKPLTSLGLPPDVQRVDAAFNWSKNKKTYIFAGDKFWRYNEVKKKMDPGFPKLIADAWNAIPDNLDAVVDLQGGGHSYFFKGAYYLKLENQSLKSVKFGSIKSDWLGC

C8166 = test: Cytotoxicity against human C8166 cells after 72 hrs by MTT assay; assay type: functional; settings: C8166, 72 h
Aminopeptidase N = molecular target: T1, Aminopeptidase N (Sus scrofa, UniProt P15145); test: Inhibition of porcine microsomal aminopeptidase N preincubated for 30 mins using L-Leu-p-nitroanilide as substrate by UV-VIS spectrophotometer
T1 sequence (P15145 whole entry): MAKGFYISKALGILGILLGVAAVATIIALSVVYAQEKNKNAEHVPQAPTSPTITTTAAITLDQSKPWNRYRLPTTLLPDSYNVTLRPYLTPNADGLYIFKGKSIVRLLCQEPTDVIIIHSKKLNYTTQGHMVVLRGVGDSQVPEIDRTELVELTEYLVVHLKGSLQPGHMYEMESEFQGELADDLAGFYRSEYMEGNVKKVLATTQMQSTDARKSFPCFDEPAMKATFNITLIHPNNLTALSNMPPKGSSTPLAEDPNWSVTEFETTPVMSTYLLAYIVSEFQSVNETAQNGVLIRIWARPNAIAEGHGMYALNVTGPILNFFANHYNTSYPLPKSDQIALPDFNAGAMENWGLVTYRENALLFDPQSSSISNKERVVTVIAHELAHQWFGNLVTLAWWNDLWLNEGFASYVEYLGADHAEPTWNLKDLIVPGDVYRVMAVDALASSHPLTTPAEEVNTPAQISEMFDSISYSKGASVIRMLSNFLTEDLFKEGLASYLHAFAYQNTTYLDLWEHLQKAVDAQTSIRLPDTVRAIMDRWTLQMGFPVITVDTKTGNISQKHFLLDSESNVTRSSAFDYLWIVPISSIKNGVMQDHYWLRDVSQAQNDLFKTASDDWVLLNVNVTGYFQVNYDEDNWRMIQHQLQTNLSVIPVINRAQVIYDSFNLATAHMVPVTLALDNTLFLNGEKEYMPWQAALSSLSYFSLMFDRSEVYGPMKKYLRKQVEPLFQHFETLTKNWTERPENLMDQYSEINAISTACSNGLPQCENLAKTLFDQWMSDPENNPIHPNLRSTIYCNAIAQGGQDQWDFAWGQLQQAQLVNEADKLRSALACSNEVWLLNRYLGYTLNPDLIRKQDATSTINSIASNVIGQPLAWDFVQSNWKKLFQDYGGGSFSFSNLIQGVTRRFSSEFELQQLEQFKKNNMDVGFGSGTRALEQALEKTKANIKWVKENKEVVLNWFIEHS

[4] = test system: Human immunodeficiency virus 1; test: Antiviral activity against HIV1 A17 infected in human C8166 cells assessed as reduction in p24 antigen level incubated for 4 hrs followed by cell plating for 72 hrs by ELISA method; assay type: functional, organism-based; settings: Human immunodeficiency virus 1, A17, C8166
[5] = test system: Human immunodeficiency virus 1; test: Antiviral activity against HIV1 74V infected in human C8166 cells assessed as reduction in p24 antigen level incubated for 4 hrs followed by cell plating for 72 hrs by ELISA method; assay type: functional, organism-based; settings: Human immunodeficiency virus 1, 74V
[6] = test system: Human immunodeficiency virus 1; test: Antiviral activity against HIV1 3B infected in human C8166 cells assessed as reduction in p24 antigen level incubated for 2 hrs followed by cell plating for 72 hrs by ELISA method; assay type: functional, organism-based; settings: Human immunodeficiency virus 1, 3B

EC50 [2] [µM]	IC50 [3] [µM]	IC50 (Aminopeptidase N) [µM]	EC50 [4] [µM]	EC50 [5] [µM]	EC50 [6] [µM]	Structure (SMILES)	selectivity ratio [1]	CC50 (C8166) [µM]
42.1	246	644	–	–	–	Cc1nc2ccccc2n(CC(=O)N/N=C/c2ccc([N+](=O)[O-])cc2)c1=O	> 7.7	> 548
145	90.8	389	–	–	–	C/C(=N\NC(=O)Cn1c(=O)c(C)nc2ccccc21)c1ccc([N+](=O)[O-])cc1	> 3.6	> 528
37.7	5.52	> 1000	74	56.3	75.6	Cc1ccc(S(=O)(=O)N2CC3(C[C@H]2C(=O)N/N=C/c2ccc(N(C)C)cc2)SCCS3)cc1	> 10.5	> 397
51.1	28.5	> 1000	11.4	30	69.6	COc1ccccc1/C=N/NC(=O)[C@@H]1CC2(CN1S(=O)(=O)c1ccc(C)cc1)SCCS2	7.6	388
38.5	210	> 1000	38.7	96	65.1	COc1cc(/C=N/NC(=O)[C@@H]2CC3(CN2S(=O)(=O)c2ccc(C)cc2)SCCS3)cc(OC)c1OC	8.5	327
32.9	0.24	> 1000	–	–	–	Cc1ccc(S(=O)(=O)N2CC3(C[C@H]2C(=O)N/N=C/c2ccccc2[N+](=O)[O-])SCCS3)cc1	1.9	65
121	67	341	–	–	–	Cc1nc2ccccc2n(CC(=O)N/N=C/c2ccccc2)c1=O	> 5.2	> 625
81	28.8	481	–	–	–	COc1ccc(/C=N/NC(=O)Cn2c(=O)c(C)nc3ccccc32)cc1OC	> 6.5	> 526
51.3	38.6	307	–	–	–	Cc1ccc(/C=N/NC(=O)Cn2c(=O)c(C)nc3ccccc32)cc1	5.1	262
239	–	> 1000	–	–	–	Cc1ccc(S(=O)(=O)N2CC3(C[C@H]2C(=O)NN)SCCS3)cc1	> 2.2	> 519
32.2	81	449	–	–	–	Cc1nc2ccccc2n(CC(=O)N/N=C/c2ccc(Cl)cc2)c1=O	> 17.5	> 565
38.8	1.89	> 1000	–	–	–	Cc1ccc(S(=O)(=O)N2CC3(C[C@H]2C(=O)N/N=C/c2ccccc2F)SCCS3)cc1	7.2	280
159	64.3	331	–	–	–	Cc1nc2ccccc2n(CC(=O)N/N=C/c2ccc(N(C)C)cc2)c1=O	2.2	355
126	74.9	243	–	–	–	COc1ccc(/C=N/NC(=O)Cn2c(=O)c(C)nc3ccccc32)c(OC)c1	> 4.2	> 526
> 543	13.2	125	–	–	–	C/C(=N\NC(=O)Cn1c(=O)c(C)nc2ccccc21)c1ccc(Cl)cc1	–	> 543

The remaining lines, values behind:

Structure (SMILES)	EC50 [2] [µM]	IC50 [3] [µM]	IC50 (Aminopeptidase N) [µM]	EC50 [4] [µM]	EC50 [5] [µM]	EC50 [6] [µM]	selectivity ratio [1]	CC50 (C8166) [µM]
Cc1nc2ccccc2n(CC(=O)NNC(=O)Cc2ccccc2)c1=O	296	159	333	–	–	–	> 1.9	> 571
Cc1nc2ccccc2n(CC(=O)NNC(=O)c2ccccc2)c1=O	273	187	–	–	–	–	–	> 595
O=C1Nc2ccc(Cl)cc2[C@@](C#CC2CC2)(C(F)(F)F)O1 [EFAVIRENZ]	–	–	–	184	–	–	–	–
C/C(=N\NC(=O)Cn1c(=O)c(C)nc2ccccc21)c1ccccc1	54.9	9.39	99.9	–	–	–	8.9	491
COc1cc(/C=N/NC(=O)Cn2c(=O)c(C)nc3ccccc32)cc(OC)c1OC	83	223	57.6	–	–	–	> 5.9	> 488
Cc1cn([C@H]2C[C@H](N=[N+]=[N-])[C@@H](CO)O2)c(=O)[nH]c1=O [ZIDOVUDINE]	0.00794	–	–	–	0.00152	0.00436	589000	4680
Cc1nc2ccccc2n(CC(=O)N/N=C/c2ccco2)c1=O	301	17.2	103	–	–	–	> 2.1	> 645
Cc1nc2ccccc2n(CC(=O)N/N=C/Cc2ccccc2)c1=O	82.8	36	223	–	–	–	> 7.2	> 599
CC(=O)NNC(=O)Cn1c(=O)c(C)nc2ccccc21	> 730	> 500	328	–	–	–	–	> 730
Cc1nc2ccccc2n(CC(=O)NNC(=O)c2ccc(Cl)cc2)c1=O	169	34.8	272	–	–	–	> 3.2	> 540
COc1ccc(/C=C/C(=O)N2C[C@@H](NC(=O)c3cccnc3)C[C@H]2C(=O)NO)cc1OC	33	–	117	–	–	–	> 13.8	> 454
C/C(=N\NC(=O)Cn1c(=O)c(C)nc2ccccc21)c1ccccc1Cl	> 543	112	439	–	–	–	–	> 543
Cc1nc2ccccc2n(CC(=O)NN)c1=O	> 862	98	257	–	–	–	–	> 862
Cc1nc2ccccc2n(CC(=O)NNC(=O)c2c(Cl)cccc2Cl)c1=O	51.6	58.2	299	–	–	–	2.97	153
C/C(=N\NC(=O)Cn1c(=O)c(C)nc2ccccc21)c1cccc(Cl)c1	> 543	567	> 1000	–	–	–	–	> 543
